The values that follow are results of earlier work, collected in US20040047946A1, “Methods and formulations useful for lowering the cholesterol content of egg yolk” (Kapac, LLC, priority 2002, published 2004).

One data set relates to hens. Conditions: hens fed 0.0265% lovastatin for 35 days.
A further data set concerns chickens. Particulars: chickens fed 2% and 4% sitosterol emulsified with carboxymethyl cellulose.

SMILES strings stand for the structures.

Regarding `CC[C@H](C)C(=O)O[C@H]1C[C@@H](C)C=C2C=C[C@H](C)[C@H](CC[C@@H]3C[C@@H](O)CC(=O)O3)[C@H]21` [lovastatin], in the data set with hens, the “less cholesterol in eggs than those from hens that received only a corn-soybean diet” value is on record as 15%. For the molecule `CC[C@H](CC[C@@H](C)[C@H]1CC[C@H]2[C@@H]3CC=C4C[C@@H](O)CC[C@]4(C)[C@H]3CC[C@]12C)C(C)C` [sitosterol], in the data set on chickens, the “cholesterol and total sterol content of the egg” value was “significant reduction”; the “level of egg yolk sitosterol” value is given as “increased”.
